{"source": "patent US20090060873A1", "about": "“Novel synthetic triterpenoids and methods of use in the treatment and prevention of multiple scleroris” (Reata Pharmaceuticals, Inc., priority 2007, published 2009)", "key": {"MOG-induced EAE [1]": {"tested_on": "MOG-induced EAE", "assay": "Prophylactic treatment in MOG EAE model", "format": "in vivo, mouse", "conditions": "100 nanomoles IP, pre and/or post MOG (Day -1, 1, 3, 5); FIGS. 23, 24", "procedure": "FIGS. 23 & 24—Prophylactic Treatment of CDDO-Me (RTA 402) or CDDO-TFEA (RTA-404) Delays Induction of Symptoms in Model of Multiple Sclerosis.\nIn prophylactic studies (FIGS. 23-24) the following design was used:\nDay-1: 100 nanomoles IP RTA 404 (2.9 mg/kg) or RTA 402 (2.5 mg/kg) in pre and pre/post groups\nDay 1: 100 nanomoles IP RTA 404 (2.9 mg/kg) or RTA 402 (2.5 mg/kg) in post and pre/post groups\nDay 3: 100 nanomoles IP RTA 404 (2.9 mg/kg) or RTA 402 (2.5 mg/kg) in post and pre/post groups\nDay 5: 100 nanomoles IP RTA 404 (2.9 mg/kg) or RTA 402 (2.5 mg/kg) in post and pre/post groups"}, "[2]": {"assay": "Brain levels of triterpenoids in mice fed compound in diet (LC/MS)"}, "[3]": {"assay": "Tissue distribution of CDDO-Me in cynomolgus monkeys after 3 days of oral dosing", "format": "in vivo", "conditions": "cynomolgus monkey, about 3 h after last dose, sesame oil vehicle", "procedure": "Experiments using CDDO-Me (RTA-402) were also conducted on 1 male and 1 female cynomolgus monkey (origin: Vietnam) between the ages of 2 and 3 years and weighing approximately 1.7 kg. Each received the test article (CDDO-Me in sesame oil) at 75 mg/kg/day via oral gavage administered at a volume of 5 mL/kg on Days 1, 2, and 3. Individual doses were based on the most recently obtained body weights. Blood samples were collected from the femoral artery/vein for determination of the plasma concentrations of the test article at 0.5, 1.5, 3, and 12 hours after dosing on Days 1 and 2 and at 0.5, 1.5, and 3 hours after dosing (±0.5 hour) on Day 3.\nAt the termination of the study (approximately three hours after dosing on Day 3), all animals were euthanized and tissues collected. Samples (approximately 1 g or greater) of the adipose tissue, brain, colon, cheek pouch (buccal mucosa), heart, ileum, kidney, liver, lung, mammary glands, ovaries, pancreas, prostate, and bone marrow from the femur (as much as possible) were collected and frozen at approximately −20° C. for analysis for the presence of the test article. All other tissues and organs were discarded.\nIn Table 1 nM is ng/mL×1000/505.8, where 505.8 is the molecular weight of RTA-402 using the approximation that the density of the tissue is that of water."}, "MOG-induced EAE [4]": {"tested_on": "MOG-induced EAE", "assay": "MOG-induced rapidly progressive EAE model, treatment, clinical score", "format": "in vivo, mouse", "conditions": "100 nmol (~2.8 mg/kg) IP, Q2Dx4, in 7.5% PBST, n=2/group"}, "NF-κB": {"tested_on": "NF-κB", "conditions": "NF-κB activated by TNF, IL-1β, phorbol ester, okadaic acid, hydrogen peroxide, LPS, cigarette smoke; cited from earlier work"}, "heme oxygenase-1 (HO-1)": {"tested_on": "heme oxygenase-1 (HO-1)", "conditions": "nanomolar concentrations; cited from earlier work"}}, "note": "Entries after “also recorded” stand apart in the source; their conditions may differ.", "data": [{"compound": "COC(=O)[C@]12CCC(C)(C)C[C@H]1[C@H]1C(=O)C=C3[C@@]4(C)C=C(C#N)C(=O)C(C)(C)[C@@H]4CC[C@@]3(C)[C@]1(C)CC2", "note": "[CDDO-Me]", "values": [{"measurement": "delay of development of clinical scores", "setting": "MOG-induced EAE [1]", "value": "modestly delayed"}, {"measurement": "level of compound in mouse brain", "setting": "[2]; fed very low levels in diet for one week (100 mg/kg diet), FIG. 1", "value": "able to reach appreciable levels in the brain; also recorded: Detectable in the Brains of Mice"}, {"measurement": "average tissue concentration, Breast", "setting": "[3]", "value": "4,389 nM"}, {"measurement": "average tissue concentration, Colon", "setting": "[3]", "value": "4,467 nM"}, {"measurement": "average tissue concentration, Kidney", "setting": "[3]", "value": "1,603 nM"}, {"measurement": "average tissue concentration, Liver", "setting": "[3]", "value": 926, "unit": "nM"}, {"measurement": "average tissue concentration, Lung", "setting": "[3]", "value": "4,992 nM"}, {"measurement": "average tissue concentration, Ovary", "setting": "[3]", "value": "2,115 nM"}, {"measurement": "average tissue concentration, Prostate", "setting": "[3]", "value": "4,446 nM"}, {"measurement": "tissue concentration, Brain (range of results obtained)", "setting": "[3]", "value": "215 to 447", "unit": "nM"}, {"measurement": "recovery of clinical score (CS 0 no symptoms, 6 quadriplegia)", "setting": "MOG-induced EAE [4]", "value": "induce full recovery of mice"}, {"measurement": "recovery of clinical score (CS 0 no symptoms, 6 quadriplegia)", "setting": "MOG-induced EAE [4]; listed as RTA 402", "value": "induce complete recovery of symptoms after initial relapse"}, {"measurement": "recovery of clinical score (CS 0 no symptoms, 6 quadriplegia)", "setting": "MOG-induced EAE [4]; listed as RTA-402", "value": "Induce Full Recovery of Mice; also recorded: Treated Animals Recover"}, {"measurement": "inhibition of constitutive and inducible NF-κB", "setting": "NF-κB", "value": "potently inhibits both constitutive and inducible NF-κB"}]}, {"compound": "CC1(C)CC[C@]2(C(=O)n3ccnc3)CC[C@]3(C)[C@H](C(=O)C=C4[C@@]5(C)C=C(C#N)C(=O)C(C)(C)[C@@H]5CC[C@]43C)[C@@H]2C1", "note": "[CDDO-Im]", "values": [{"measurement": "expression of HO-1", "setting": "heme oxygenase-1 (HO-1)", "value": "rapidly increase the expression of the cytoprotective heme oxygenase-1 (HO-1) enzyme"}]}, {"compound": "CNC(=O)[C@]12CCC(C)(C)C[C@H]1C1C(=O)C=C3[C@@]4(C)C=C(C#N)C(=O)C(C)(C)[C@@H]4CC[C@@]3(C)[C@]1(C)CC2", "note": "(some centres unmarked) [CDDO-MA]", "values": [{"measurement": "concentration in brains of mice", "setting": "[2]; 800 mg/kg diet, 2 or 4 days, FIG. 2", "value": "Significant Concentrations"}]}, {"compound": "CC1(C)CC[C@]2(C(=O)O)CC[C@]3(C)[C@H](C(=O)C=C4[C@@]5(C)C=C(C#N)C(=O)C(C)(C)[C@@H]5CC[C@]43C)[C@@H]2C1", "note": "[CDDO, 2-cyano-3,12-dioxooleane-1,9(11)-dien-28-oic acid]", "values": [{"measurement": "expression of HO-1", "setting": "heme oxygenase-1 (HO-1)", "value": "rapidly increase the expression of the cytoprotective heme oxygenase-1 (HO-1) enzyme"}]}]}
